Laboratory results from BindingDB's records for patent WO2022098806 (MERCK SHARP & DOHME LLC, 2022).
pIC50: −log10 of the molar value. Values joined by “and” are separate entries in the source; they are usually repeats but may differ in a detail not shown here. Identical values can stand only once.

The molecules below were run against Mitogen-activated protein kinase kinase kinase kinase 1 (Homo sapiens, UniProt Q92918) (assay: HPK1-SLP76 TR-FRET ASSAY).
Sequence of Mitogen-activated protein kinase kinase kinase kinase 1 (Q92918 whole entry): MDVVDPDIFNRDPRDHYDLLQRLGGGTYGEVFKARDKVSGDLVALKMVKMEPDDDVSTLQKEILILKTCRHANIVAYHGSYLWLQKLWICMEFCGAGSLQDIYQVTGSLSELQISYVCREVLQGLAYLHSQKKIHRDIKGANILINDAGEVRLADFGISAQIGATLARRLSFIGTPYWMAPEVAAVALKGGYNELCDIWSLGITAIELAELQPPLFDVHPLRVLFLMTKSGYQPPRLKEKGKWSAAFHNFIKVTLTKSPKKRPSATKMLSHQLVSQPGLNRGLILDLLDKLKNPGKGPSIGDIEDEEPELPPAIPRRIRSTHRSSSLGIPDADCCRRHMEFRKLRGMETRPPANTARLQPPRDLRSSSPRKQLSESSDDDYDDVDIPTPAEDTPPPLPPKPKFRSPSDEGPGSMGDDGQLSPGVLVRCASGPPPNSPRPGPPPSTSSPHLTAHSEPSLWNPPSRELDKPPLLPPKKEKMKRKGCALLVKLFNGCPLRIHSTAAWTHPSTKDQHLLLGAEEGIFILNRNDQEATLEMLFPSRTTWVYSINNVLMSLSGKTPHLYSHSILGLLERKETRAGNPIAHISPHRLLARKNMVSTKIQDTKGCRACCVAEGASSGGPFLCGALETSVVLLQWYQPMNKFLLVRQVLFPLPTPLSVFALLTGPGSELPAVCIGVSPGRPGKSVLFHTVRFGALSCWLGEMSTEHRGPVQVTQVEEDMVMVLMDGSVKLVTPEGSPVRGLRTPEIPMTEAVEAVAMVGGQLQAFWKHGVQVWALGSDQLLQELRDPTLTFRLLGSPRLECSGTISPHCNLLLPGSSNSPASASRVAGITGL

SMILES | pIC50
Cc1c(-c2c(F)c(N)c3cnc(Nc4ccc5c(c4)CN(C)CC54CC4)nc3c2Cl)cnc2c1NCCO2 [WO2022098806, Compound 2-108] | 11.00
Cc1c(-c2c(F)c(N)c3cnc(Nc4ccc5c(c4)CN(C)CC54CC4)nc3c2C#N)cnc2c1NCCO2 [WO2022098806, Compound 2-109] | 10.30
Cc1c(-c2cc3nc(Nc4ccc(CS(C)(=O)=O)cc4)ncc3c(N)c2F)cnc2c1NCCO2 [WO2022098806, Compound 2-114] | 10.30 and 10.15 and 10.40
Cc1c(-c2cc3nc(Nc4ccc5c(c4)CN(C)CCC5)ncc3c(N)c2F)cnc2c1NCCO2 [WO2022098806, Compound 2-117] | 10.40
Cc1c(-c2cc3nc(Nc4ccc5c(c4)CCN(C)CC5)ncc3c(N)c2F)cnc2c1NCCO2 [WO2022098806, Compound 2-119] | 10.40
Cc1c(-c2cc3nc(Nc4ccc5c(c4)CNCCC5)ncc3c(N)c2F)cnc2c1NCCO2 [WO2022098806, Compound 2-120] | 11.00
Cc1c(-c2cc3nc(Nc4ccc5c(c4)C4CCC5N4C)ncc3c(N)c2F)cnc2c1NCCO2 (stereo not given) [WO2022098806, Compound 2-121] | 10.70
CN1CCc2ccc(Nc3ncc4c(N)c(F)c(-c5cnc6c(c5Cl)NCCO6)cc4n3)cc2C1 [WO2022098806, Compound 2-124] | 10.30 and 10.52
CCS(=O)(=O)Cc1ccc(Nc2ncc3c(N)c(F)c(-c4cnc5c(c4C)NCCO5)cc3n2)c(F)c1 [WO2022098806, Compound 2-125] | 10.00 and 9.35 and 10.05
Cc1c(-c2cc3nc(Nc4ccc5c(c4)CC(C)(C)N(C)C5)ncc3c(N)c2F)cnc2c1NCCO2 [WO2022098806, Compound 2-126] | 10.05
Cc1c(-c2cc3nc(Nc4cccc5c4CC(C)(C)N(C)C5)ncc3c(N)c2F)cnc2c1NCCO2 [WO2022098806, Compound 2-127] | 7.00
Cc1c(-c2cc3nc(Nc4ccc5c(c4)CN(C)C(C)(C)C5)ncc3c(N)c2F)cnc2c1NCCO2 [WO2022098806, Compound 2-128] | 10.52
Cc1c(-c2cc3nc(Nc4ccc5c(c4)CN(C)CC5)ncc3c(N)c2F)cnc2cc[nH]c12 [WO2022098806, Compound 2-130] | 10.00
Cc1c(-c2c(F)c(N)c3cnc(Nc4ccc(CS(=O)(=O)C(C)C)cc4)nc3c2Cl)cnc2c1NCCO2 [WO2022098806, Compound 2-133] | 9.40
Cc1c(-c2c(F)c(N)c3cnc(Nc4ccc(CS(C)(=O)=O)cc4F)nc3c2Cl)cnc2c1NCCO2 [WO2022098806, Compound 2-135] | 9.89
Cc1c(-c2cc3nc(Nc4ccc(CS(=O)(=O)C5CC5)cc4)ncc3c(N)c2F)cnc2c1NCCO2 [WO2022098806, Compound 2-136] | 10.00
Cc1c(-c2cc3nc(Nc4ccc5c(c4)CCS(=O)(=O)C5)ncc3c(N)c2F)cnc2c1NCCO2 [WO2022098806, Compound 2-138] | 10.15
CN1CCc2ccc(Nc3ncc4c(N)c(F)c(-c5cncc6[nH]ccc56)cc4n3)cc2C1 [WO2022098806, Compound 2-139] | 10.40
Cc1c(-c2cc3nc(Nc4ccc5c(c4)CN(C)CC5)ncc3c(N)c2F)cnc2c1NCC(C)O2 (stereo not given) [WO2022098806, Compound 2-141] | 10.30
Cc1c(-c2cc3nc(Nc4ccc5c(c4)CN(C(C)C)CC5)ncc3c(N)c2F)cnc2c1NCC(C)O2 (stereo not given) [WO2022098806, Compound 2-145] | 10.30
Cc1c(-c2cc3nc(Nc4ccc([C@@H]5CCN(C)C5=O)cc4)ncc3c(N)c2F)cnc2c1NCCO2 [WO2022098806, Compound 2-146] | 10.30
Cc1c(-c2cc3nc(Nc4ccc([C@H]5CCN(C)C5=O)cc4)ncc3c(N)c2F)cnc2c1NCCO2 [WO2022098806, Compound 2-147] | 10.10
Cc1c(-c2cc3nc(Nc4ccc(C5(S(C)(=O)=O)CC5)cc4)ncc3c(N)c2F)cnc2c1NCCO2 [WO2022098806, Compound 2-148] | 10.10

SMILES | pIC50
Cc1c(-c2cc3nc(Nc4ccc(CS(=O)(=O)CC(F)(F)F)cc4)ncc3c(N)c2F)cnc2c1NCCO2 [WO2022098806, Compound 2-149] | 9.72
Cc1c(-c2cc3nc(Nc4ccc5c(c4)CN(C)CC5(C)C)ncc3c(N)c2F)cnc2c1NCCO2 [WO2022098806, Compound 2-150] | 10.22
Cc1c(-c2cc3nc(Nc4ccc5c(c4)CN(C)CC54CC4)ncc3c(N)c2F)cnc2c1NCCO2 [WO2022098806, Compound 2-151] | 10.30 and 9.57
CN1Cc2cc(Nc3ncc4c(N)c(F)c(-c5cnc6c(c5Cl)NCCO6)cc4n3)ccc2C2(CC2)C1 [WO2022098806, Compound 2-152] | 10.15
Cc1c(N)cncc1-c1cc2nc(Nc3ccc4c(c3)CN(C)CC43CC3)ncc2c(N)c1F [WO2022098806, Compound 2-153] | 10.30
Cc1c(-c2cc3nc(Nc4ccc(CS(C)(=O)=O)cc4F)ncc3c(N)c2F)cnc2c1NCCO2 [WO2022098806, Compound 2-155] | 10.22
Cc1c(-c2cc3nc(Nc4ccc(CS(=O)(=O)C(C)C)cc4)ncc3c(N)c2F)cnc2c1NCCO2 [WO2022098806, Compound 2-157] | 10.15
Cc1c(-c2cc3nc(Nc4ccc5c(c4)CCN(C)C5)ncc3c(N)c2F)cnc2c1NCCO2 [WO2022098806, Compound 2-158] | 10.52
Cc1c(-c2c(F)c(N)c3cnc(Nc4ccc(N5CCOC5=O)cc4)nc3c2Cl)cnc2c1NCCO2 [WO2022098806, Compound 2-159] | 9.62
Cc1c(-c2cc3nc(Nc4ccc5c(c4)CN(C)CC5)ncc3c(N)c2F)cnc2nc[nH]c12 [WO2022098806, Compound 2-162] | 9.89
Cc1c(-c2cc3nc(Nc4ccc(CS(C)(=O)=O)cc4)ncc3c(N)c2F)cnc2c1NCC(C)(C)O2 [WO2022098806, Compound 2-165] | 10.00
Cc1c(-c2cc3nc(Nc4ccc5c(c4)CN(C)CC5)ncc3c(N)c2F)cnc2c1NCC(C)(C)O2 [WO2022098806, Compound 2-166] | 10.22
COc1cc(CS(=O)(=O)C(C)C)ccc1Nc1ncc2c(N)c(F)c(-c3cnc4c(c3C)NCC(C)(C)O4)cc2n1 [WO2022098806, Compound 2-168] | 10.00
COc1cc2c(cc1Nc1ncc3c(N)c(F)c(-c4cnc5c(c4C)NCCO5)c(Cl)c3n1)CN(C)CC21CC1 [WO2022098806, Compound 2-169] | 10.22
Cc1c(-c2cc3nc(Nc4ccc([S+](C)[O-])cc4)ncc3c(N)c2F)cnc2c1NCCO2 (stereo not given) [WO2022098806, Compound 2-170] | 10.40
Cc1c(-c2cc3nc(Nc4cc5c(cc4F)CCN(C(C)C)C5)ncc3c(N)c2F)cnc2c1NCCO2 [WO2022098806, Compound 2-171] | 10.30
Cc1ccc(F)cc1-c1cc2nc(Nc3ccc(CS(C)(=O)=O)cc3)ncc2c(N)c1F [WO2022098806, Compound 2-172] | 7.60
CCc1ccc(Nc2ncc3c(N)c(F)c(-c4cnc5c(c4C)NCCO5)cc3n2)cn1 [WO2022098806, Compound 2-173] | 9.89
Cc1ccc(F)cc1-c1cc2nc(Nc3ccc4c(c3)CN(C)CC4)ncc2c(N)c1F [WO2022098806, Compound 2-174] | 7.96
COc1cc(C2CC2)ccc1Nc1ncc2c(N)c(F)c(-c3cnc4c(c3C)NCCO4)cc2n1 [WO2022098806, Compound 2-176] | 7.77
Cc1c(-c2cc3nc(Nc4ccc(CC(C)(C)O)cc4)ncc3c(N)c2F)cnc2c1NCCO2 [WO2022098806, Compound 2-178] | 10.05
Cc1c(-c2c(F)c(N)c3cnc(Nc4ccc5c(c4)CN(C)CC5)nc3c2Cl)cnc2c1NCCO2 [WO2022098806, Compound 2-180] | 10.22 and 10.70
